# Tests used:
# HCoV (OC43) = test: In vitro assay for HCoV (OC43), virus yield reduction in Huh7 cells; type: cell-based; conditions: for inhibition at 10 µM: Betacoronavirus 1, OC43, Huh-7, 10 μM
# Text: In order to determine the potential effect of each selected compound against in vitro replication of SARS-CoV-2 in Vero cells or HCoV (OC43) in Huh7 cells, a confluent cell monolayer in a 96-wells cell culture microplate can be infected at a multiplicity of infection (MOI) of 0.1 and treated with a maximum non-toxic concentration (MNTC) of each compound. To assess the antiviral activity, a virus yield reduction assay using specific qRT-PCR for each virus can be performed.
# Dose-Dependent Antiviral Assay. The antiviral effect of each compound selected through the antiviral evaluation assay can be further confirmed by virus yield reduction assay using the optimized qRT-PCR by measuring the RNA copy number for each virus in the supernatant of treated-infected cells. A positive control, such as remdesivir, can be used for each assay.
# Statistical analysis. The half-maximal effective concentration (EC50) and the concentration with 90% of inhibitory effect (EC90) can be calculated using GraphPad PRISM for Windows, version 5 (GraphPad Software Inc., San Diego, CA, 2005) or the Chou and Talalay Method.
# These methods were used to evaluate certain of the compounds described herein.
# SARS-CoV-2 = test: microbe, parasite or virus in culture; type: cell-based; conditions: for inhibition at 10 µM: Severe acute respiratory syndrome coronavirus 2, Vero, read-out: SARS-CoV-2 Inhibition at 10 μM (%)
Structure (SMILES),inhibition at 10 µM (HCoV (OC43)) [%],inhibition at 10 µM (SARS-CoV-2) [%],OC43 Inhibition at 10 μM (%) (HCoV (OC43); 10 μM),"SARS-CoV-2 Inhibition at 10 μM (%) (SARS-CoV-2; 10 μM, Vero cells)"
Cc1cc(C(=O)NC(CC(C)C)C(=O)N[C@H](C=O)C[C@@H]2CCCNC2=O)no1 (stereo partly shown) [Compound 43],99.9,99.9,,
CCOC(=O)/C=C/[C@H](C[C@@H]1CCCNC1=O)NC(=O)C(CC(C)C)NC(=O)[C@H](Cc1cccc2ccccc12)NC(=O)c1cc(C)on1 (stereo partly shown) [Compound 44],99.7,99.5,,
"CC(C)C[C@H](NC(=O)[C@H](Cc1cccc2ccccc12)NC(=O)OCc1ccccc1)C(=O)N[C@@H](C[C@@H]1CCCNC1=O)[C@@H](O)C#N [Compound 128, Benzyl ((S)-1-(((S)-1-(((1R,2S)-1-cyano-1-hydroxy-3-((S)-2-oxopiperidin-3-yl)propan-2-yl)amino)-4-methyl-1-oxopentan-2-yl)amino)-3-(naphthalen-1-yl)-1-oxopropan-2-yl)carbamate]",100,99.9,,
"CC(C)C[C@H](NC(=O)[C@H](Cc1cccc2ccccc12)NC(=O)OCc1ccccc1)C(=O)N[C@@H](C[C@@H]1CCCNC1=O)[C@H](O)C#N [Compound 129, benzyl ((S)-1-(((S)-1-(((1S,2S)-1-cyano-1-hydroxy-3-((S)-2-oxopiperidin-3-yl)propan-2-yl)amino)-4-methyl-1-oxopentan-2-yl)amino)-3-(naphthalen-1-yl)-1-oxopropan-2-yl)carbamate]",,,99.9,99.9
CC(C)CC(NC(=O)[C@H](Cc1cccc2ccccc12)NC(=O)OCc1ccccc1)C(=O)N[C@@H](C[C@@H]1CCNC1=O)C1OCCO1 (stereo partly shown) [Compound 136],99.3,99.8,,
